From patent US20080233562A1, “Method of Estimating Antitumor Effect of Histone Deacetylase Inhibitor” (Astellas Pharma Inc., priority 2003, published 2008)

Key:
[1] = test system: human prostate cancer PC-3; test: Antitumor effect on human prostate cancer PC-3 tumor fragment implanted s.c. in nude mice; assay type: in vivo
Method: A necessary amount of FK228 was weighed and a solvent (10% HCO-60/saline) was added. The mixture was sonicated to allow for dissolution. A positive control substance Paclitaxel was dissolved in Cremophor EL/ethanol (1:1) solution to 24 mg/mL prior to the testing, and preserved in a refrigerator. When in use, it was diluted with a 9-fold amount of physiological saline to 2.4 mg/mL (solvent component: 5% Cremophor EL-5% ethanol-90% saline).
(§3) For antitumor test of the pharmaceutical agent, BALB/cANnNCrj-nu/nu mice (male, 6-week-old) were purchased from Charles River Japan and, after acclimation for not less than one week, used for the test. The mice were reared under an SPF environment and allowed a free access to water and feed.
A grown solid tumor was subcultured for not less than 3 generations and used for the test.
(§4) A solid tumor subcultured in a nude mouse was subcutaneously implanted in the right back of a mouse as an about 3 mm square tumor tissue fragment. […]
(§5) The administration was started on the day of grouping (Day 0). […] The amount of liquid for each administration was calculated (0.1 mL/10 g body weight) based on the body weight measured on the administration day.
(§6) The tumor size (longer diameter, shorter diameter) and body weight were measured twice a week from Day 0.
(§7) The level of tumor growth was evaluated based on the tumor growth rate (Relative Tumor Volume). […]

human kidney cancer ACHN = test: Antitumor effect on human kidney cancer ACHN tumor fragment implanted s.c. in nude mice; assay type: in vivo
Method: A necessary amount of FK228 was weighed and a solvent (10% HCO-60/saline) was added. The mixture was sonicated to allow for dissolution.
as §3
Cultured human kidney cancer cell line 1 (ACHN: available from ATCC) and human culture prostate cancer cell line 1 (PC-3: available from ATCC) were subcutaneously implanted at 2-3×10^7 cells in a nude mouse. A grown solid tumor was subcultured for not less than 3 generations and used for the test.
as §4, §5, §6, §7

[2] = test system: human stomach cancer SC-6; test: Antitumor effect on human stomach cancer SC-6 tumor fragment implanted s.c. in nude mice; assay type: in vivo; settings: SC-6 s.c. in nude mice, 3.2 mg/kg i.v.
From the text: (§1) A solid tumor subcultured in a nude mouse was subcutaneously implanted in the right back of a mouse as an about 3 mm square tumor tissue fragment. After the tumor implantation, when the tumor volume (½×longer diameter×shorter diameter^2) reached 100-300 mm^3, the mice were grouped into 6 mice per group to level the tumor size.
human gastric cancer SC-6; obtained from Central Institute for Experimental Animals (tumor fragment 3 mm×3 mm×3 mm/mouse implantation site s.c.)
(§2) By the method shown in Example 1, 3 mm square tumor fragments (human prostate cancer PC-3, human stomach cancer SC-6, human kidney cancer ACHN and human kidney cancer A498) were subcutaneously implanted in nude mice, and when the tumor volume (long diameter 9 mm, short diameter 8 mm) reached about 100-300 mm^3, FK228 (3.2 mg/kg) was intravenously administered. The tumor growth suppressing rates then were 98%, 84%, 20% and 29%, respectively.

human kidney cancer A498 = test: Antitumor effect on human kidney cancer A498 tumor fragment implanted s.c. in nude mice; assay type: in vivo; settings: 3.2 mg/kg i.v.
From the text: as §1
human kidney cancer A498; obtained from ATCC (tumor fragment 3 mm×3 mm×3 mm/mouse implantation site s.c.)
as §2

[3] = Maximum tolerated dose, intravenous administration to nude mice; settings: mouse, in vivo, i.v.
Method: The administration was started on the day of grouping (Day 0). FK228 was intravenously administered to an FK228 administration group 3 times every 4 days (q4d×3) (3.2 and 1.8 mg/kg). Paclitaxel (24 mg/kg) was intravenously administered for 5 consecutive days (qd×5) to a positive control substance Paclitaxel administration group. Only a solvent (10% HCO-60/saline) was administered (q4d×3) to a control group. The amount of liquid for each administration was calculated (0.1 mL/10 g body weight) based on the body weight measured on the administration day. Note that 3.2 mg/kg/day (q4d×3) of FK228 and 24 mg/kg/day (qd×5) of Paclitaxel were the maximum tolerated doses (MTD) thereof.

SMILES: C/C=C1\NC(=O)[C@H]2CSSCC/C=C/[C@H](CC(=O)N[C@H](C(C)C)C(=O)N2)OC(=O)[C@H](C(C)C)NC1=O [FK228]
- antitumor action (tumor growth rate, Relative Tumor Volume) ([1]; PC-3 in nude mice, FK228 3.2 mg/kg i.v. q4d×3, FIG. 1(a)): strong antitumor action
- tumor growth suppressing rate ([1]; PC-3 s.c. in nude mice, 3.2 mg/kg i.v.): 98%
- antitumor action (tumor growth rate, Relative Tumor Volume) (human kidney cancer ACHN; ACHN in nude mice, FK228 i.v. q4d×3, FIG. 1(b)): did not show an antitumor action
- tumor growth suppressing rate (human kidney cancer ACHN; ACHN s.c. in nude mice, 3.2 mg/kg i.v.): 20%
- tumor growth suppressing rate [2]: 84%
- tumor growth suppressing rate (human kidney cancer A498): 29%
- MTD ([3]; q4d×3, nude mice): 3.2 mg/kg/day

SMILES: CC(=O)O[C@H]1C(=O)[C@@]2(C)[C@H]([C@H](OC(=O)c3ccccc3)[C@]3(O)C[C@H](OC(=O)[C@H](O)[C@@H](NC(=O)c4ccccc4)c4ccccc4)C(C)=C1C3(C)C)[C@]1(OC(C)=O)CO[C@@H]1C[C@@H]2O [Paclitaxel, reference compound]
- MTD at 5 days ([3]; 24 mg/kg, qd×5, nude mice): 24 mg/kg/day
